Where two headings read alike, the source gives them in different places. Marks after values point to notes of the source that are not given here.
Experiments:
[1] = test system: pancreatic carcinoma; conditions: second-line, cited from earlier work
[2] = test system: pancreatic carcinoma; experiment: Second-line therapy following progression on FOLFIRINOX; format: in vivo, human; conditions: Overall (mean)
Text: Overall Survival (OS) increased from 6.8 months with Gemcitabine to 11.1 months with FOLFIRINOX (p<0.001). However, the Complete Response Rate (CR) was only 0.6%.

[3] = test system: locally advanced and metastatic pancreatic carcinoma; conditions: first-line therapy, n = 171 per arm; cited from earlier work
[4] = test system: renal cell carcinoma (786-0) xenografts; experiment: Renal cell carcinoma (786-0) xenografts in nude mice; format: in vivo; conditions: for tumor growth: FIG. 7, vs untreated controls
[5] = test system: pancreatic tumors; conditions: n = 8 each
Method: Please note that all four cohorts (control, […] ®, anti-PD-L1, […] ®+anti-PD-L1) were studied in the same parallel experiment.
In this experiment, sub-therapeutic doses of […] ® were administered in mouse models of pancreatic cancer.

[6] = test system: TME of metastatic colorectal carcinoma; conditions: 9 patients vs. historical controls
Text: Colorectal carcinoma was used as a GI model for pancreatic carcinoma in order to obtain biopsy specimens of the TME. We used […]® to determine if there is improvement in the Teff/Treg ratio in the TME secondary to the […]® induction of desirable chemokines, such as CXCL 10 (Teff-attractant), in the TME, while decreasing the unfavorable chemokines, such as CCL22 (C-C Motif Chemokine Ligand 22; Treg-attractant), thereby increasing the Teff/Treg ratio in the TME.
See, Example Section below.

[7] = test system: renal cell carcinoma (786-0) xenografts; conditions: Hubbell, 1990, cited from earlier work
[8] = test system: B16 melanoma tumors; conditions: n = 10; for Number of Partial Responses (PR) / Number of Complete Responses (CR): Day 30; for Number of Complete Responses (CR): RECIST v1.1
Method: Rintatolimod together with anti-PD-L1 antibodies were tested for anti-tumor activity against established subcutaneous B16 melanoma tumors in C57BL/6 mice. Mice (10 animals per group) were inoculated with 0.4×10E6 B16-F10 tumor cells in their shaved rear flanks. Seven days later (when tumors reached 0.3 to 0.5 cm in their largest diameter), mice were randomized for tumor sizes, and individually tagged and were allocated to the following six treatment groups: • No treatment (negative controls) • Rintatolimod alone 100 μg/dose 4× • Rintatolimod alone 250 μg/dose 4× • Anti-PD-L1 mAb alone • Rintatolimod 100 μg/dose 4× plus anti-PD-L1 mAb • Rintatolimod 250 μg/dose 4× plus anti-PD-L1 mAb
Rintatolimod was injected intravenously at 100 or 250 micrograms/dose and was repeated 4 times, 5 days apart. Anti-PD-L1 mAb (clone 10F.9G2, BioXCell) was administered intraperitoneally on Days 1 and 3 after each rintatolimod injection at a 200 microgram/dose. Tumors were measured 3 times per week using a set of calipers, taking measurement of 2 opposing diameters and were recorded as tumor areas.
Results were presented as tumor sizes for individual mice throughout the time of therapy, average tumor size in each group and survival up to Day 30 (time to euthanasia).
® and anti-PD-L1 antibodies were tested for anti-tumor activity against established subcutaneous B16 melanoma tumors in C57BL/6 mice. Briefly, mice (10 animals per group) were inoculated with 0.4×10E6 (i.e., 400,000) B16-F10 tumor cells in their shaved rear flanks. Seven days later, mice were randomized to six treatment groups as follows: (Group 1) No treatment (negative controls); (Group 2) […] ® alone 100 μg/dose 4×; (Group 3) […] ® alone 250 μg/dose 4×; (Group 4) Anti-PD-L1 mAb alone; (Group 5) […] ® 100 μg/dose 4× plus anti-PD-L1 mAb; (Group 6) […] ® 250 μg/dose 4× plus anti-PD-L1 mAb. mAb refers to monoclonal antibody.
® was injected IV at 100 or 250 μg/dose 4 times, 5 days apart. Anti-PD-L1 mAb was administered IP on Days 1 and 3 after each […] ® dose at 200 μg/dose. Tumors were measured 3 times per week using calipers, measuring 2 opposing diameters. […] Results were presented as tumor sizes for individual mice throughout time of therapy up to Day 30.

[9] = test system: human bladder tumor xenografts; experiment: Human bladder tumor xenografts in nude mice; format: in vivo

In the case of `Nc1ccn([C@@H]2O[C@H](CO)[C@@H](O)C2(F)F)c(=O)n1` [Gemcitabine], the “Progression Free Survival (PFS)” value ([1]; Gilabert, et al. 2017, n = 72) is listed as 2.5 months, the “Complete Response Rates (CR)” value ([1]; Gilabert, et al. 2017) is listed as 0% and the “Partial Response Rates (PR)” value ([1]; Gilabert, et al. 2017) is listed as 5.5%. The “Overall Survival (OS)” value ([1]; Viaud, et al. 2017, n = 96) was 3.7 months, the “Progression Free Survival (PFS)” value ([1]; Viaud, et al. 2017, n = 96) was 2.1 months and the “Complete Response Rates (CR)” value ([1]; Viaud, et al. 2017) was 0%. For the same compound, the “Partial Response Rates (PR)” value ([1]; Viaud, et al. 2017) was 8.3%, the “Overall Survival (OS)” value ([1]; da Rocha, et al. 2015, n = 20) was 5.7 months and the “Progression Free Survival (PFS)” value ([1]; da Rocha, et al. 2015, n = 20) was 2.0 months. For the same compound, the “Complete Response Rates (CR)” value ([1]; da Rocha, et al. 2015) was 0%, the “Partial Response Rates (PR)” value ([1]; da Rocha, et al. 2015) was 0% and the “Partial Response Rates (PR)” value [2] was 6.4%. The “Complete Response Rates (CR)” value ([2]; weighted average) was 0%*, the “Progression Free Survival (PFS)” value ([2]; weighted average) was 2.24* months and the “Overall Survival (OS)” value ([2]; weighted average based on n in each study) was 4.05* months. The “Complete Response Rates (CR), %” value [3] was 0(0) %, the “Overall Survival (OS)” value [3] was 6.8 months and the “Partial Response Rates (PR), %” value [3] was 9.4%. The “Progression Free Survival (PFS)” value [3] was 3.3 months.

For “polyriboinosinic:polyribocytidylic(12:1)uridylic acid”, the “survival of nude mice” value ([4]; FIG. 8, 100% death rate for untreated controls) was 100%, the tumor growth ([4]; monotherapy, listed as rintatolimod) was “tumor regression was observed in each mouse” and the tumor growth ([4]; monotherapy, listed as tdsRNA) was “growth inhibition”. For the same compound, the “mice free of the residual tumor” value ([4]; monotherapy, 100% of the control group had died) was 90%, the “Time to Progression Median” value ([5]; sub-therapeutic doses, control 33) was 33 days and the “Increased Time to Progression” value ([5]; versus control) was 0 days. For the same compound, the “ratio of Teff/Treg markers in the TME” value [6] was “improved ratios”, the tumor growth inhibition ([7]; p<0.001) was “statistically significant tumor growth inhibition” and the survival ([7]; p<0.002) was “increased survival”. The “Total # Tumor Responses CR + PR” value ([8]; rintatolimod 100 μg/dose 4×) was 0, the “Number of Partial Responses (PR)” value ([8]; rintatolimod 100 μg/dose 4×) was 0 and the “Number of Complete Responses (CR)” value ([8]; rintatolimod 100 μg/dose 4×) was 0. The “Total # Tumor Responses CR + PR” value ([8]; rintatolimod 250 μg/dose 4×) was 0, the “Number of Partial Responses (PR)” value ([8]; rintatolimod 250 μg/dose 4×) was 0 and the “Number of Complete Responses (CR)” value ([8]; rintatolimod 250 μg/dose 4×) was 0. The “growth of human bladder tumor xenografts” value [9] was “significantly inhibited”.
